Patent US20110104159A1, “COMPOSITIONS AND METHODS FOR TREATING, CONTROLLING, REDUCING, AMELIORATING, OR PREVENTING ALLERGY” (priority 2006, published 2011)
“And” between values parts separate entries of the source, which are not always exact repeats. Identical values can stand only once.

Assays:
human eosinophils = experiment: Ionomycin-induced IL-8 secretion in human eosinophils (ELISA); format: cell-based; conditions: Eosinophil, compound 45 min before ionomycin, supernatant after 18 h, read-out: IC50, IL-8 release induced by ionomycin in eosinophils
Experimental: After 18 h stimulation at 37° C. in a 5% CO2 atmosphere, Interleukin-8 (IL-8) was measured in supernatants obtained from […] with a commercial ELISA kit from R&D Systems. The threshold sensitivity was 5 pg/ml and the inter- and intra-assay variations were less than 5%. The supernatants obtained from HMC-1 cells were aliquoted in duplicates for interleukin-6 (IL-6), IL-8, chemokine (C-C motif) ligand 5 (CCL5)/regulated upon activation, normal T-cell expressed and secreted (RANTES) and tumor necrosis factor-α (TNF-α) analysis using a high-throughput multiplex Luminex technology (Luminex 200 System; Luminex, Austin, Tx, USA) and Beadview software version 1.0 (Upstate Cell Signaling Solutions, Temecula, Calif.). Standard curves for known concentrations of recombinant human cytokines were used to convert median fluorescence intensities to cytokine concentrations in pg/ml. Only the linear portions of the standard curves were used to quantify cytokine concentrations, and in instances where the fluorescence reading exceeded the linear range of the standard curve, an appropriate dilution was performed to ensure that the concentration was in the linear portion of the curve.

[1] = test system: rabbit paracentesis model; experiment: Pupillary diameter measurement, rabbit paracentesis model; format: in vivo; conditions: for Pupillary diameter T2: −5 min: 5 min before first paracentesis; for Pupillary diameter T2: −5 min / Pupillary diameter T3: +115 min / Pupillary diameter Δ(T3 − T1) / Pupillary diameter T1: −180 min: individual eye, listed as BOL; for Pupillary diameter T3: +115 min: 5 min before second paracentesis; for Pupillary diameter Δ(T3 − T1): +115 min minus −180 min; for Pupillary diameter T1: −180 min: basal; for Mean (mm) Δ(T3 − T1) of pupillary diameter: group mean, n=8 eyes
Experimental: (§1) Each rabbit was placed in a restraint device and tagged with the alphanumeric code. The formulations were instilled (50 μl) into the conjunctival sac of both eyes 180, 120, 90 and 30 min before the first paracentesis; then 15, 30, 90 min after the first paracentesis. To perform the first paracentesis the animals were anaesthetized by intravenous injection of 5 mg/kg Zoletil® (Virbac; 2.5 mg/kg tiletamine HCl and 2.5 mg/kg zolazepam HCl) and one drop of local anesthetic (Novesina®, Novartis) was administered to the eye. Anterior chamber paracentesis was performed with a 26 G needle attached to a tuberculin syringe; the needle was introduced into the anterior chamber through the cornea, taking care not to damage the tissues. Two hours after the first paracentesis, the animals were sacrificed with 0.4 ml Tanax® (Intervet International B.V.) and the second paracentesis was performed. About 100 μl of aqueous humor were removed at the second paracentesis. Aqueous humor was immediately split in four aliquots and stored at −80° C. until analysis. Then both eyes were enucleated and the iris-ciliary body was carefully excised, placed in polypropylene tubes, and stored at −80° C. until analysis.
The pupillary diameter of both eyes was measured with a Castroviejo caliper 180 min and 5 min before the first paracentesis and 5 min before the second paracentesis.

[2] = biological target: human glucocorticoid receptor (Homo sapiens, UniProt P04150); conditions: Schacke et al. [26]; cited from earlier work
annexin I = experiment: Annexin I surface expression in human eosinophils (FACS), transactivation marker; format: cell-based; conditions: 10 000 nM
Experimental: FACS was performed to measure cell surface expression of annexin I and CXCR4 as indicators of glucocorticoid-mediated transactivation. Human eosinophils were double-stained with a red dye-conjugated secondary antibody to trace changes in the expression of CXCR4 or I, and a green dye-conjugated annexin V to exclude apoptotic cells from the analysis. The cells were counted and transferred to a 24-well plate (10^6 cells/well) and serum-starved (0.1% FBS) for 24 h.
At the end of the incubation, the cells were harvested and each sample was divided into two tubes to run parallel tests for annexin I and CXCR4 surface expression. After rinsing all samples with a HBSS solution containing 1% BSA, the cells were incubated for 45 min on a shaker with anti-annexin I or anti-CXCR4 antibodies (1:200) on ice; the negative control was incubated with an isotype-specific control antibody.
The cells were then washed twice with HBSS/BSA buffer before exposure to the Alexa Fluor® 568-conjugated secondary antibody. The excess of unbound antibody was washed away, and all samples were incubated for 15 min in the presence of annexin V-Fluos. […] Electronic gates were set on annexin V-negative cells and CXCR4 or annexin I-positive cells. Data from 10,000 cells/sample were analyzed using dedicated software (Becton, Dickinson and Company). The % of CXCR4 or annexin I positive cells was calculated.

PGE2 = experiment: Prostaglandin E2 (PGE2) measurement in aqueous humor; format: in vivo, Rabbit; conditions: for PGE2 in aqueous humor at the second paracentesis, Mean: group mean; for PGE2 in aqueous humor at the second paracentesis: individual eye sample, listed as BOL; for PGE2 in aqueous humor, statistical comparison with CTR: p<0.05
Experimental: as §1
For the quantitative determination of PGE2 in the aqueous humor we used the PGE2 Immunoassay kit (R&D Systems; Cat. No. KGE004; Lot. No. 240010). Eleven microliters or 16 μl of aqueous humor were diluted to 110 μl or 160 μl with the calibrator diluent solution provided with the kit. One hundred microliters of samples and of standards were load into a 96-well plate and recorded in a plate layout. Samples were treated following the assay procedure described in the kit. A microplate reader (GDV, Italy; model DV 990 B/V6) set at 450 nm (wavelength correction at 540 nm) was used for making the calibration and analyzing the samples.

[3] = test system: monkey trabecular meshwork cells; conditions: monkey trabecular meshwork cells [28]; cited from earlier work
EoL-1 cells = experiment: EoL-1 cell apoptosis (annexin V/PI flow cytometry); format: cell-based, human
Experimental: EoL-1 cells were grown in RPMI-1640+L-glutamine medium (containing 10% FBS) and kept at 37° C. in a 5% CO2 humidified atmosphere. Before each experiment, the cells were stabilized in serum-depleted media (0.1% FBS) for 24 h before treatments.

[4] = test system: protein concentration in the aqueous humor; experiment: Protein measurement in aqueous humor; format: in vivo, Rabbit; conditions: for Protein in aqueous humor at the second paracentesis, Mean: group mean; for Protein in aqueous humor at the second paracentesis: individual eye sample, listed as BOL
Experimental: as §1
For protein concentration determination in the aqueous humor we used the Protein Quantification Kit (Fluka; Cat. No. 77371; Lot. No. 1303129). Five microliters of aqueous humor were diluted to 100 μl with water. Twenty microliters of samples and of standards were load into a 96-well plate and recorded in a plate layout. Samples were treated following the assay procedure described in the kit. A microplate reader (GDV, Italy; model DV 990 B/V6) set at 670 nm was used for making the calibration and analyzing the samples.

Sequence of human glucocorticoid receptor (P04150 whole entry): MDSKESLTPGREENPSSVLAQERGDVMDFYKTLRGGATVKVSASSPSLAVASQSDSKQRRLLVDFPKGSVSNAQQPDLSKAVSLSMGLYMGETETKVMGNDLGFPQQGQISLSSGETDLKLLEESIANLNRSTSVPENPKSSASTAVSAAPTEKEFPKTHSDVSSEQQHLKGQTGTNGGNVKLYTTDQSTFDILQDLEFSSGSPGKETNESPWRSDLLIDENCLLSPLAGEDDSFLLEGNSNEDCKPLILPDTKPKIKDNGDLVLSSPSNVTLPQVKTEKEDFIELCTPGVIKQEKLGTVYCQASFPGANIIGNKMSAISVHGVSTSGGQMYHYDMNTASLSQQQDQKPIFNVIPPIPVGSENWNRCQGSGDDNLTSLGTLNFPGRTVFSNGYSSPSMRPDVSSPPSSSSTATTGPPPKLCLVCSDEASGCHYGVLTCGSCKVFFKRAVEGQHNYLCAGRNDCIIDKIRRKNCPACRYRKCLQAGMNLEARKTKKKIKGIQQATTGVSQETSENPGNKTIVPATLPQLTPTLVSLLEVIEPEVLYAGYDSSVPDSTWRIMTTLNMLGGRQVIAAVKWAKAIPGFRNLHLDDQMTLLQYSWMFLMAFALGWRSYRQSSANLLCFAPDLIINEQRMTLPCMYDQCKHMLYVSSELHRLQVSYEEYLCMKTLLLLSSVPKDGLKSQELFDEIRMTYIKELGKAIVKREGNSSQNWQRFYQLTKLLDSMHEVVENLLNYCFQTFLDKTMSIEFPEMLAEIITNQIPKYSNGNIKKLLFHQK

IC50 (human eosinophils): 10.7 nM
EC50 (EoL-1 cells; Homo sapiens, EOL1, 0.1% FBS 96 h, compound during the last 72 h, read-out: EC50, enhancement of spontaneous EoL-1 cell apoptosis): 315 nM
SMILES: Cc1ccc2c(NC[C@](O)(CC(C)(C)c3cc(F)cc4c3OCC4)C(F)(F)F)cccc2n1 [BOL-303242-X, (R)-1,1,1-Trifluoro-4-(5-fluoro-2,3-dihydrobenzofuran-7-yl)-4-methyl-2-{[(2-methyl-5-quinolyl)amino]methyl}pentan-2-ol]
Pupillary diameter T2: −5 min ([1]; 0.1% topical): 6.5 mm (3×) and 7.0 mm (4×) and 7.5 mm
Pupillary diameter T3: +115 min ([1]; 0.1% topical): 5.0 mm (2×) and 6.0 mm (3×) and 6.5 mm and 5.5 mm (2×)
Pupillary diameter Δ(T3 − T1) ([1]; 0.1% topical): −1.5 mm (4×) and −0.5 mm (2×) and −1.0 mm (2×)
Pupillary diameter T1: −180 min ([1]; 0.1% topical): 6.5 mm (4×) and 7.0 mm (3×) and 7.5 mm
Pupillary diameter T2: −5 min ([1]; 0.5% topical): 8.0 mm (3×) and 7.0 mm (4×) and 7.5 mm
Pupillary diameter T3: +115 min ([1]; 0.5% topical): 6.5 mm (4×) and 6.0 mm (2×) and 7.0 mm (2×)
Pupillary diameter Δ(T3 − T1) ([1]; 0.5% topical): −1.5 mm (2×) and −0.5 mm (2×) and −1.0 mm (4×)
Pupillary diameter T1: −180 min ([1]; 0.5% topical): 8.0 mm (3×) and 7.0 mm (3×) and 7.5 mm (2×)
Mean (mm) Δ(T3 − T1) of pupillary diameter ([1]; 0.5% topical): −1.0 mm
Pupillary diameter T2: −5 min ([1]; 1% topical): 6.0 mm (2×) and 6.5 mm (4×) and 7.0 mm (2×)
Pupillary diameter T3: +115 min ([1]; 1% topical): 5.5 mm (2×) and 5.0 mm (4×) and 6.0 mm (2×)
Pupillary diameter Δ(T3 − T1) ([1]; 1% topical): −0.5 mm (3×) and −1.5 mm (2×) and −1.0 mm (3×)
Pupillary diameter T1: −180 min ([1]; 1% topical): 6.0 mm (3×) and 6.5 mm (5×)
Mean (mm) Δ(T3 − T1) of pupillary diameter ([1]; 1% topical): −0.9 mm
Binding to the human glucocorticoid receptor [2]: high affinity and selectivity
Induction of annexin I expression on the eosinophil cell surface (annexin I): partially effective only at the highest concentration
PGE2 in aqueous humor at the second paracentesis, Mean (PGE2; 0.1% topical): 1.452 ng/mL
PGE2 in aqueous humor at the second paracentesis (PGE2; 0.1% topical): 1.62 ng/mL and 1.88 ng/mL and 2.15 ng/mL and 0.70 ng/mL and 1.34 ng/mL and 1.03 ng/mL
PGE2 in aqueous humor, statistical comparison with CTR (PGE2; 0.1% topical): statistically significant versus CTR
PGE2 in aqueous humor at the second paracentesis, Mean (PGE2; 0.5% topical): 1.384 ng/mL
PGE2 in aqueous humor at the second paracentesis (PGE2; 0.5% topical): 2.31 ng/mL and 2.59 ng/mL and 0.53 ng/mL and 0.75 ng/mL and 0.80 ng/mL and 1.62 ng/mL and 1.09 ng/mL
PGE2 in aqueous humor, statistical comparison with CTR (PGE2; 0.5% topical): statistically significant versus CTR
PGE2 in aqueous humor at the second paracentesis, Mean (PGE2; 1% topical): 2.168 ng/mL
PGE2 in aqueous humor at the second paracentesis (PGE2; 1% topical): 0.50 ng/mL and 1.87 ng/mL and 1.71 ng/mL and 4.04 ng/mL and 1.11 ng/mL and 3.78 ng/mL
Agonism in increasing myocilin expression [3]: partial glucocorticoid receptor agonist
Efficacy, enhancement of spontaneous EoL-1 cell apoptosis (EoL-1 cells; 0.1% FBS 96 h, compound during the last 72 h): 61%
Percentage of annexin-V+/PI+ (necrotic) EoL-1 cells (EoL-1 cells; 72 h, 5000 nM, n=12, p>0.05 vs without compound (12±5%)): 7±4%
Protein in aqueous humor at the second paracentesis, Mean ([4]; 0.1% topical): 33.667 mg/mL
Protein in aqueous humor at the second paracentesis ([4]; 0.1% topical): 34.87 mg/mL and 34.41 mg/mL and 31.14 mg/mL and 22.82 mg/mL and 29.46 mg/mL and 31.69 mg/mL and 35.70 mg/mL and 49.25 mg/mL
Protein in aqueous humor at the second paracentesis, Mean ([4]; 0.5% topical): 28.844 mg/mL
Protein in aqueous humor at the second paracentesis ([4]; 0.5% topical): 33.98 mg/mL and 33.65 mg/mL and 19.99 mg/mL and 27.11 mg/mL and 19.72 mg/mL and 36.35 mg/mL and 27.71 mg/mL and 32.24 mg/mL
Protein in aqueous humor, statistical comparison with CTR ([4]; 0.5% topical, p<0.05): statistical significance
Protein in aqueous humor at the second paracentesis, Mean ([4]; 1% topical): 21.435 mg/mL
Protein in aqueous humor at the second paracentesis ([4]; 1% topical): 20.99 mg/mL and 21.48 mg/mL and 15.11 mg/mL and 20.28 mg/mL and 20.94 mg/mL and 21.89 mg/mL and 20.03 mg/mL and 30.76 mg/mL
Protein in aqueous humor, statistical comparison with CTR ([4]; 1% topical, p<0.001): statistical significance
